Experimental data from ChEMBL document CHEMBL5506016 (J Med Chem, 2024).
pEC50: −log10 of the molar value. Calls of active or inactive are those of the source. No cut-off for these calls is given here.

Experiments:
[1] = target: T1, ADP-sugar pyrophosphatase (Homo sapiens, UniProt Q9UKK9); settings: filed as antagonist
[2] = target: T1, ADP-sugar pyrophosphatase; design: species or system HEK293

| Structure (SMILES) | Activity [1] | pEC50 [2] |
| --- | --- | --- |
| Cn1c(=O)c2c(nc(N3CCN(CCCCN)CC3)n2Cc2nnc(-c3ccc(Cl)c(Cl)c3)o2)n(C)c1=O | Active | – |
| CC#CC(=O)N1CCC[C@H]1c1nc(-c2ccc(C(=O)Nc3ccccn3)cc2)c2c(N)nccn12 [ACALABRUTINIB] | – | < 5.00 |
| CC#CC(=O)N[C@H]1CCCN(c2c(F)cc(C(N)=O)c3[nH]c(C)c(C)c23)C1 [BRANEBRUTINIB] | – | < 5.00 |
| C=CC(=O)N1CCC[C@@H](n2nc(-c3ccc(Oc4ccccc4)cc3)c3c(N)ncnc32)C1 [IBRUTINIB] | – | 5.91 |
